The target of one assay is RET kinase Wild Type (Homo sapiens, UniProt P07949). Nature of the assay: RET Enzyme Assay (HTRF KinEASE-TK), Wild Type. The assay is classed as biochemical. For orientation: TR-FRET usually uses a lanthanide donor and a delayed reading to cut background.
A further assay addresses RET kinase V804M (Homo sapiens, UniProt P07949, V804M). Nature of the assay: RET Enzyme Assay (HTRF KinEASE-TK), V804M. It is filed as biochemical.
Another assay deals with RET kinase M918T (Homo sapiens, UniProt P07949, M918T). Nature of the assay: RET Enzyme Assay (HTRF KinEASE-TK), M918T. It is filed as biochemical.
Sequence of RET kinase M918T (P07949 29-1114 M918T): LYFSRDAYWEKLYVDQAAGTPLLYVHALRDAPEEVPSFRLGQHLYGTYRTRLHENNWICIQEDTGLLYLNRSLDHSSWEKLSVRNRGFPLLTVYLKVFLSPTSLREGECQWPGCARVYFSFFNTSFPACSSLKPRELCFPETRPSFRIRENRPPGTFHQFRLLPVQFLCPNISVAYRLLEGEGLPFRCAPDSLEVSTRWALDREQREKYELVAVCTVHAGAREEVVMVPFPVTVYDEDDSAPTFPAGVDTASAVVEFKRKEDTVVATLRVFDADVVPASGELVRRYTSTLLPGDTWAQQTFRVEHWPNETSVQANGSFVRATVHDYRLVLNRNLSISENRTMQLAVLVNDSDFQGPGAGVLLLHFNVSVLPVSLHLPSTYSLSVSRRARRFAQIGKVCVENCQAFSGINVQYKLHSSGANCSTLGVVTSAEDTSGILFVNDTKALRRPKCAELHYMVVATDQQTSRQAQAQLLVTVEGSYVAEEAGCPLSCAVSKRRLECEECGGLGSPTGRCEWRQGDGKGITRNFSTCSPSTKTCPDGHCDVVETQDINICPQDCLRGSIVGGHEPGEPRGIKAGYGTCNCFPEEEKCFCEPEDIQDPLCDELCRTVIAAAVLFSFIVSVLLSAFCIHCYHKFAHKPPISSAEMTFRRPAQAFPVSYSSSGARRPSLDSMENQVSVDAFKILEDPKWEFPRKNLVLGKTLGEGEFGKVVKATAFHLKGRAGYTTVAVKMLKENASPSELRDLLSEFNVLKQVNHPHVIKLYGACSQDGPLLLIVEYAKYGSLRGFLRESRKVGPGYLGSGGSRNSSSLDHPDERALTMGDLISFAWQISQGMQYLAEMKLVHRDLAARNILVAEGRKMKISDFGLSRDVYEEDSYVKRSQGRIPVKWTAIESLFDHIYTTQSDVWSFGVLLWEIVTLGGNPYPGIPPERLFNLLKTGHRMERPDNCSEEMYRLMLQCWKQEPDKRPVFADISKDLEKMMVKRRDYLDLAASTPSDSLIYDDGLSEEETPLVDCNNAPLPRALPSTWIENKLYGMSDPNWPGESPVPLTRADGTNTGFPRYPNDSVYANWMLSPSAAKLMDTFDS
The target of the next assay is RET kinase G810R (Homo sapiens, UniProt P07949, G810R). As to the kind of experiment: RET Enzyme Assay (HTRF KinEASE-TK), G810R. It is filed as biochemical.
Sequence of RET kinase G810R (P07949 29-1114 G810R): as the sequence (P07949 29-1114 M918T) above, with G782R, T890M counted along it
The next assay has as its target RET kinase G810S (Homo sapiens, UniProt P07949, G810S). As to the kind of experiment: RET Enzyme Assay (HTRF KinEASE-TK), G810S. The assay is classed as biochemical.
In assay [1] the target is T1, HEK-293 cells expressing a Kif5b-RET fusion protein (Homo sapiens, UniProt P07949).
T1 construct: expressed in transfected cells; host or cells: HEK-293; the other entry of the earlier key: KIF5B (P33176, Kinesin-1 heavy chain)
T1 sequence (P07949 713-1063 limits assumed): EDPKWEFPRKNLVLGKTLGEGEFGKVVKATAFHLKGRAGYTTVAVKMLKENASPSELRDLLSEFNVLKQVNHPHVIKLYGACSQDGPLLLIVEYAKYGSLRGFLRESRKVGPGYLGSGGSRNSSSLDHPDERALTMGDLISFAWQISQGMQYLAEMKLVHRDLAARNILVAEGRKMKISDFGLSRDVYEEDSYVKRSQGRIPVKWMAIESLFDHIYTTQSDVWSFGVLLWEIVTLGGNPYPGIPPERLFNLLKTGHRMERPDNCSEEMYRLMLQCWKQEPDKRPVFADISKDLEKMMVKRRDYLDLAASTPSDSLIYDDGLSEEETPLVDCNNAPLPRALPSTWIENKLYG
Nature of the assay: RET Cell Assay (phospho-RET Tyr1062). The assay is classed as cell-based. To be noted: 1 hour with compound, phospho-RET(Tyr1062) normalized to GAPDH, read-out: KIF5B-RET pTYR1062 Cell IC50. As to the method: (§1) The cellular potency of compounds inhibiting RET kinase were determined in HEK-293 cells expressing a Kif5b-RET fusion protein. Briefly, HEK-293 cells expressing a Kif5b-RET fusion protein were plated at 50K cells/well in 96 well poly-D-Lysine coated plates the day prior to the assay. The cells were incubated for 1 hour with test compound in DMEM (Dulbecco's Modified Eagle Medium) at a final DMSO concentration of 0.5%. […] After 1 hour the media was removed, the cells were fixed with 3.8% formaldehyde for 20 min, washed with PBS, and permeabilized for 10 min with 100% methanol. […] All antibodies were diluted in LI-COR Block containing 0.05% Tween. The plates were washed with PBS-0.05% Tween20, 100 μL PBS is added to each well, and the plates were read on a LI-COR Aerius fluorescent plate reader. The phospho-RET signal was normalized to the GAPDH signal. 100 POC (percent of control) was determined using no test compounds and 0 POC was determined using 1 μM of a control inhibitor. The POC values were fit to a 4 parameter logistic curve. The IC50 value is the point where the curve crosses 50 POC.

Assay [2] deals with T2, HEK-293 cells expressing a G810R mutant RET Kif5b-RET fusion protein (Homo sapiens, UniProt P07949, G810R).
T2 construct: expressed in transfected cells; host or cells: HEK-293; the other entry of the earlier key: KIF5B (P33176, Kinesin-1 heavy chain)
T2 sequence (P07949 713-1063 G810R limits assumed): T1 sequence (P07949 713-1063 limits assumed) with G98R
Nature of the assay: RET G810R Mutant Cell Assay (phospho-RET Tyr1062). The assay is classed as cell-based. As to conditions: 1 hour with compound, phospho-RET(Tyr1062) normalized to GAPDH. As to the method: RET G810R and G810S Mutant Cell Assay
as §1, with “expressing a G810R or G810S mutant RET Kif5b-RET fusion” for “expressing a Kif5b-RET fusion”, “μL PBS was added to” for “μL PBS is added to”, “POC values are fit to” for “POC values were fit to”

Our source for the IC50 values is patent US11524963B2, “Substituted pyrazolo[3,4-d]pyrimidines as RET kinase inhibitors” (Array Biopharma Inc., priority 2018, dated 2022).

Where a chain is given by its changes, count along the chain named.

Sequence of RET kinase V804M (P07949 29-1114 V804M): as the sequence (P07949 29-1114 M918T) above, with V776M, T890M counted along it
Sequence of RET kinase G810S (P07949 29-1114 G810S): as the sequence (P07949 29-1114 M918T) above, with G782S, T890M counted along it
Sequence of RET kinase Wild Type (P07949 29-1114): as the sequence (P07949 29-1114 M918T) above, with T890M counted along it

The term IC50 denotes the midpoint of a concentration-inhibition curve. Take `Cc1cc(-c2nn(C(C)C)c3ncnc(N)c23)n(C2CCCCO2)n1` (stereo not shown) [Example 21, 1-isopropyl-3-(3-methyl-1-(tetrahydro-2H-pyran-2-yl)-1H-pyrazol-5-yl)-1H-pyrazolo[3,4-d]pyrimidin-4-amine]: the IC50 on RET kinase Wild Type is 2.1 nM; on RET kinase V804M, 260 nM; against RET kinase M918T, 4.1 nM; on RET kinase G810R, 19.5 nM; on RET kinase G810S, 17.9 nM; in assay [1] it was 36 nM. Besides, in assay [2], the half-maximal inhibitory concentration (IC50) came out at 342 nM.

As for `CC(C)n1nc(-c2noc(C3CC3)c2-c2ccn(C)n2)c2c(N)ncnc21` [Example 2, 3-(5-cyclopropyl-4-(1-methyl-1H-pyrazol-3-yl)isoxazol-3-yl)-1-isopropyl-1H-pyrazolo[3,4-d]pyrimidin-4-amine], the IC50 on RET kinase Wild Type stood at 1.2 nM; against RET kinase V804M it was 2.1 nM; on RET kinase M918T it was 1.1 nM; on RET kinase G810R, 4.4 nM; at RET kinase G810S, 4.4 nM; in assay [1], 75 nM. In addition, in assay [2], the IC50 is 247 nM.

For `CC(C)n1nc(-c2cc(C3CC3)nn2C2CCCCO2)c2c(N)ncnc21` (stereo not shown) [Example 19, 3-(3-cyclopropyl-1-(tetrahydro-2H-pyran-2-yl)-1H-pyrazol-5-yl)-1-isopropyl-1H-pyrazolo[3,4-d]pyrimidin-4-amine], the IC50 on RET kinase Wild Type amounted to 3.9 nM; at RET kinase V804M, 418 nM; at RET kinase M918T it was 6.1 nM; on RET kinase G810R, 28.9 nM; at RET kinase G810S, 24.1 nM; in assay [1] it was 40 nM. For the same molecule, the IC50 in assay [2] came out at 628 nM.

Consider `CC(C)n1nc(-c2noc(C3CC3)c2C2=CCC(C)(O)CC2)c2c(N)ncnc21` (stereo not shown) [Example 15, 4-(3-(4-amino-1-isopropyl-1H-pyrazolo[3,4-d]pyrimidin-3-yl)-5-cyclopropylisoxazol-4-yl)-1-methylcyclohex-3-en-1-ol], for which the concentration for half-maximal inhibition (IC50) at RET kinase Wild Type stood at 1.3 nM; on RET kinase V804M it was 6.5 nM; at RET kinase M918T it was 1.6 nM; against RET kinase G810R it was 6.3 nM; at RET kinase G810S it was 6.3 nM; in assay [1] it was 42 nM. The IC50 in assay [2] amounted to 263 nM.

Regarding `CC(C)n1nc(-c2ccnn2C2CCCCO2)c2c(N)ncnc21` (stereo not shown) [Example 23, 1-isopropyl-3-(1-(tetrahydro-2H-pyran-2-yl)-1H-pyrazol-5-yl)-1H-pyrazolo[3,4-d]pyrimidin-4-amine], the IC50 stood at 4.1 nM on RET kinase Wild Type; 27.4 nM against RET kinase V804M; 8.5 nM at RET kinase M918T; 15.8 nM against RET kinase G810R; 46 nM against RET kinase G810S; 344 nM in assay [1]. Further, the IC50 in assay [2] was 10000 nM.

On to `CC(C)n1nc(-c2noc(C3CC3)c2C2=CCCCO2)c2c(N)ncnc21` [Example 9, 3-(5-cyclopropyl-4-(3,4-dihydro-2H-pyran-6-yl)isoxazol-3-yl)-1-isopropyl-1H-pyrazolo[3,4-d]pyrimidin-4-amine], for which the half-maximal inhibitory concentration (IC50) on RET kinase Wild Type was found to be 0.3 nM; at RET kinase V804M, 0.6 nM; on RET kinase M918T it was 0.2 nM; against RET kinase G810R, 1.4 nM; against RET kinase G810S, 1.4 nM; in assay [1], 24 nM. For the same molecule, the IC50 in assay [2] came out at 137 nM.

With `C=Cc1cc(-c2nn(C(C)C)c3ncnc(N)c23)n(C2CCCCO2)n1` (stereo not shown) [Example 22, 1-isopropyl-3-(1-(tetrahydro-2H-pyran-2-yl)-3-vinyl-1H-pyrazol-5-yl)-1H-pyrazolo[3,4-d]pyrimidin-4-amine], the 50% inhibitory concentration (IC50) at RET kinase Wild Type was found to be 2.3 nM; on RET kinase V804M, 307 nM; against RET kinase M918T, 3 nM; at RET kinase G810R it was 16.5 nM; against RET kinase G810S it was 13 nM; in assay [1] it was 21 nM. Further, the IC50 in assay [2] was 214 nM.

For the molecule `CC(C)n1nc(-c2noc(C3CC3)c2C2=CCC(O)CC2)c2c(N)ncnc21` (stereo not shown) [Example 14, 4-(3-(4-amino-1-isopropyl-1H-pyrazolo[3,4-d]pyrimidin-3-yl)-5-cyclopropylisoxazol-4-yl)cyclohex-3-en-1-ol], the IC50 came out at 1.2 nM against RET kinase Wild Type; 7 nM at RET kinase V804M; 1.5 nM on RET kinase M918T; 4.1 nM on RET kinase G810R; 4.9 nM against RET kinase G810S; 35 nM in assay [1]. Besides, the IC50 in assay [2] came to 86 nM.

On to `CC(C)n1nc(-c2noc([C@@H](C)O)c2-c2ccccn2)c2c(N)ncnc21` [Example 18, (R)-1-(3-(4-amino-1-isopropyl-1H-pyrazolo[3,4-d]pyrimidin-3-yl)-4-(pyridin-2-yl)isoxazol-5-yl)ethan-1-ol], for which the IC50 turned out to be 1.1 nM against RET kinase Wild Type; 3.1 nM on RET kinase V804M; 1 nM on RET kinase M918T; 4.4 nM on RET kinase G810R; 4.3 nM at RET kinase G810S; 42 nM in assay [1].

In the case of `CC(C)n1nc(-c2noc(C3CC3)c2C2CCOCC2)c2c(N)ncnc21` [Example 17, 3-(5-cyclopropyl-4-(tetrahydro-2H-pyran-4-yl)isoxazol-3-yl)-1-isopropyl-1H-pyrazolo[3,4-d]pyrimidin-4-amine], the IC50 came to 0.7 nM against RET kinase Wild Type; 7.5 nM against RET kinase V804M; 0.8 nM against RET kinase M918T; 2.2 nM at RET kinase G810R; 3.7 nM against RET kinase G810S; 68 nM in assay [1]. Moreover, the IC50 in assay [2] turned out to be 264 nM.

Take `CC(C)n1nc(-c2noc(C3CC3)c2C2CCCCO2)c2c(N)ncnc21` (stereo not shown) [Example 16, 3-(5-cyclopropyl-4-(tetrahydro-2H-pyran-2-yl)isoxazol-3-yl)-1-isopropyl-1H-pyrazolo[3,4-d]pyrimidin-4-amine]: the IC50 was 0.6 nM at RET kinase Wild Type; 1.3 nM at RET kinase V804M; 0.7 nM at RET kinase M918T; 3.6 nM against RET kinase G810R; 4 nM against RET kinase G810S; 28 nM in assay [1]. In addition, the IC50 in assay [2] stood at 162 nM.

For the molecule `CC(C)n1nc(-c2noc(C3CC3)c2Br)c2c(N)ncnc21` [Example 1, 3-(4-bromo-5-cyclopropylisoxazol-3-yl)-1-isopropyl-1H-pyrazolo[3,4-d]pyrimidin-4-amine], the 50% inhibitory concentration (IC50) stood at 2.1 nM on RET kinase Wild Type; 5.7 nM against RET kinase V804M; 1.8 nM against RET kinase M918T; 3.8 nM at RET kinase G810R; 11.7 nM at RET kinase G810S; 263 nM in assay [1].
